# Legend:
# Assay type in all cases: in vivo
# [1] = test system: lambsquarters (Chenopodium album); experiment: Test C greenhouse herbicide test, pre- and postemergence
# Summary of the method: (§1)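 Visual ratings on a 0 to 100 scale (0 = no effect, 100 = complete control) versus untreated controls, scored 13–15 d after treatment. Soil-applied preemergence to seeded loam/sand; foliar postemergence to 1- to 4-leaf plants (2–18 cm) in peat-vermiculite mix; compounds formulated in solvent plus surfactant.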
# corn (Zea mays) = experiment: as above
# Summary of the method: as §1
# [2] = test system: morningglory (Ipomoea coccinea); experiment: as above
# Summary of the method: as §1
# [3] = test system: ragweed (common ragweed, Ambrosia elatior); experiment: as above
# Summary of the method: as §1
# [4] = test system: crabgrass, large (large crabgrass, Digitaria sanguinalis); experiment: as above
# Summary of the method: as §1
# [5] = test system: oilseed rape (Brassica napus); experiment: as above
# Summary of the method: as §1
# [6] = test system: ryegrass, Italian (Italian ryegrass, Lolium multiflorum); experiment: as above
# Summary of the method: as §1
# [7] = test system: pigweed (Amaranthus retroflexus); experiment: as above
# Summary of the method: as §1
# [8] = test system: waterhemp (common waterhemp, Amaranthus rudis); experiment: as above
# Summary of the method: as §1
# [9] = test system: blackgrass (Alopecurus myosuroides); experiment: as above
# Summary of the method: as §1
# [10] = test system: johnsongrass (Sorghum halepense); experiment: as above
# Summary of the method: as §1
# soybean (Glycine max) = experiment: as above
# Summary of the method: as §1
# [11] = test system: velvetleaf (Abutilon theophrasti); experiment: as above
# Summary of the method: as §1
# [12] = test system: foxtail, giant (giant foxtail, Setaria faberii); experiment: as above
# Summary of the method: as §1
# [13] = test system: oat, wild (wild oat, Avena fatua); experiment: Test C greenhouse herbicide test, postemergence
# Summary of the method: (§2)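 Postemergence foliar treatment, 1- to 4-leaf stage (2–18 cm), peat/vermiculite medium; greenhouse 13–15 d; visual rating vs controls, 0 = no effect, 100 = complete control; dash = no result.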
# kochia (Kochia scoparia) = experiment: Test C greenhouse herbicide test, postemergence
# Summary of the method: as §2
# [14] = Postemergence, 31 g ai/ha, scale 0 to 100 (0 no effect, 100 complete control)
# [15] = Postemergence, 62 g ai/ha, 0 to 100 scale (0 no effect, 100 complete control)
# [16] = Postemergence, 250 g ai/ha, scale 0 to 100, 0 is no effect, 100 is complete control
# [17] = postemergence, 125 g ai/ha, scale 0 to 100, 0 no effect, 100 complete control
# [18] = Preemergence, 31 g ai/ha, scale 0 to 100, 0 is no effect, 100 is complete control
# [19] = Preemergence, 62 g ai/ha, scale 0 to 100, 0 is no effect, 100 is complete control
# [20] = Preemergence, 125 g ai/ha, scale 0 to 100, 0 is no effect, 100 is complete control
# [21] = Preemergence, 250 g ai/ha, scale 0 to 100 (0 no effect, 100 complete control)
smiles,measurement,setting,value
CC(=O)Oc1c(C)nn(C)c(=O)c1-c1c([N+](=O)[O-])ccc2ccccc12 [Compound 164],"Plant response rating, Lambsquarters",[1]; [14],70
same,Lambsquarters plant response rating,[1]; [15],85
same,"Plant response rating, Lambsquarters",[1]; [16],98
same,Lambsquarters plant response rating,[1]; [17],85
same,"Plant response rating, Corn",corn (Zea mays); [14],0
same,Corn plant response rating,corn (Zea mays); [15],0
same,"Plant response rating, Corn",corn (Zea mays); [16],5
same,Corn plant response rating,corn (Zea mays); [17],5
same,"Plant response rating, Morningglory",[2]; [14],80
same,Morningglory plant response rating,[2]; [15],85
same,"Plant response rating, Morningglory",[2]; [16],90
same,Morningglory plant response rating,[2]; [17],90
same,"Plant response rating, Ragweed",[3]; [14],70
same,Ragweed plant response rating,[3]; [15],80
same,"Plant response rating, Ragweed",[3]; [16],90
same,Ragweed plant response rating,[3]; [17],85
same,"Plant response rating, Crabgrass, Large",[4]; [14],0
same,"Crabgrass, Large plant response rating",[4]; [15],5
same,"Plant response rating, Crabgrass, Large",[4]; [16],10
same,"Crabgrass, Large plant response rating",[4]; [17],10
same,"Plant response rating, Oilseed Rape",[5]; [14],0
same,Oilseed Rape plant response rating,[5]; [15],0
same,"Plant response rating, Oilseed Rape",[5]; [16],0
same,Oilseed Rape plant response rating,[5]; [17],0
same,"Plant response rating, Ryegrass, Italian",[6]; [14],50
same,"Ryegrass, Italian plant response rating",[6]; [15],60
same,"Plant response rating, Ryegrass, Italian",[6]; [16],85
same,"Ryegrass, Italian plant response rating",[6]; [17],80
same,"Plant response rating, Pigweed",[7]; [14],70
same,Pigweed plant response rating,[7]; [15],80
same,"Plant response rating, Pigweed",[7]; [16],85
same,Pigweed plant response rating,[7]; [17],85
same,"Plant response rating, Waterhemp",[8]; [14],60
same,Waterhemp plant response rating,[8]; [15],70
same,"Plant response rating, Waterhemp",[8]; [16],75
same,Waterhemp plant response rating,[8]; [17],70
same,"Plant response rating, Blackgrass",[9]; [14],5
same,Blackgrass plant response rating,[9]; [15],15
same,"Plant response rating, Blackgrass",[9]; [16],45
same,Blackgrass plant response rating,[9]; [17],40
same,"Plant response rating, Johnsongrass",[10]; [14],5
same,Johnsongrass plant response rating,[10]; [15],5
same,"Plant response rating, Johnsongrass",[10]; [16],10
same,Johnsongrass plant response rating,[10]; [17],5
same,"Plant response rating, Soybean",soybean (Glycine max); [14],0
same,Soybean plant response rating,soybean (Glycine max); [15],0
same,"Plant response rating, Soybean",soybean (Glycine max); [16],5
same,Soybean plant response rating,soybean (Glycine max); [17],10
same,"Plant response rating, Velvetleaf",[11]; [14],25
same,Velvetleaf plant response rating,[11]; [15],60
same,"Plant response rating, Velvetleaf",[11]; [16],70
same,Velvetleaf plant response rating,[11]; [17],25
same,"Plant response rating, Foxtail, Giant",[12]; [14],5
same,"Foxtail, Giant plant response rating",[12]; [15],10
same,"Plant response rating, Foxtail, Giant",[12]; [16],30
same,"Foxtail, Giant plant response rating",[12]; [17],15
same,"Plant response rating, Oat, Wild",[13]; [14],35
same,"Oat, Wild plant response rating",[13]; [15],45
same,"Plant response rating, Oat, Wild",[13]; [16],80
same,"Oat, Wild plant response rating",[13]; [17],70
same,"Plant response rating, Kochia",kochia (Kochia scoparia); [14],60
same,Kochia plant response rating,kochia (Kochia scoparia); [15],85
same,"Plant response rating, Kochia",kochia (Kochia scoparia); [16],95
same,Kochia plant response rating,kochia (Kochia scoparia); [17],90
CSCC(=O)Oc1c(C)nn(C)c(=O)c1-c1cccc2ccccc12 [Compound 171],"Plant response rating, Lambsquarters",[1]; [14],90
same,Lambsquarters plant response rating,[1]; [15],95
same,"Plant response rating, Lambsquarters",[1]; [16],100
same,"Plant response rating, Lambsquarters",[1]; [18],98
same,"Plant response rating, Lambsquarters",[1]; [19],95
same,"Plant response rating, Lambsquarters",[1]; [20],95
same,Lambsquarters plant response rating,[1]; [21],100
same,Lambsquarters plant response rating,[1]; [17],98
same,"Plant response rating, Corn",corn (Zea mays); [14],0
same,Corn plant response rating,corn (Zea mays); [15],0
same,"Plant response rating, Corn",corn (Zea mays); [16],20
same,"Plant response rating, Corn",corn (Zea mays); [18],0
same,"Plant response rating, Corn",corn (Zea mays); [19],0
same,"Plant response rating, Corn",corn (Zea mays); [20],0
same,Corn plant response rating,corn (Zea mays); [21],40
same,Corn plant response rating,corn (Zea mays); [17],10
same,"Plant response rating, Morningglory",[2]; [14],90
same,Morningglory plant response rating,[2]; [15],100
same,"Plant response rating, Morningglory",[2]; [16],100
same,"Plant response rating, Morningglory",[2]; [18],85
same,"Plant response rating, Morningglory",[2]; [19],90
same,"Plant response rating, Morningglory",[2]; [20],95
same,Morningglory plant response rating,[2]; [21],98
same,Morningglory plant response rating,[2]; [17],100
same,"Plant response rating, Ragweed",[3]; [14],75
same,Ragweed plant response rating,[3]; [15],100
same,"Plant response rating, Ragweed",[3]; [16],100
same,"Plant response rating, Ragweed",[3]; [18],65
same,"Plant response rating, Ragweed",[3]; [19],80
same,"Plant response rating, Ragweed",[3]; [20],95
same,Ragweed plant response rating,[3]; [17],100
same,"Plant response rating, Crabgrass, Large",[4]; [14],5
same,"Crabgrass, Large plant response rating",[4]; [15],20
same,"Plant response rating, Crabgrass, Large",[4]; [16],55
same,"Plant response rating, Crabgrass, Large",[4]; [18],0
same,"Plant response rating, Crabgrass, Large",[4]; [19],45
same,"Plant response rating, Crabgrass, Large",[4]; [20],60
same,"Crabgrass, Large plant response rating",[4]; [21],80
same,"Crabgrass, Large plant response rating",[4]; [17],40
same,"Plant response rating, Oilseed Rape",[5]; [14],0
same,Oilseed Rape plant response rating,[5]; [15],0
same,"Plant response rating, Oilseed Rape",[5]; [16],30
same,"Plant response rating, Oilseed Rape",[5]; [18],0
same,"Plant response rating, Oilseed Rape",[5]; [19],5
same,"Plant response rating, Oilseed Rape",[5]; [20],50
same,Oilseed Rape plant response rating,[5]; [21],90
same,Oilseed Rape plant response rating,[5]; [17],0
same,"Plant response rating, Ryegrass, Italian",[6]; [14],90
same,"Ryegrass, Italian plant response rating",[6]; [15],95
same,"Plant response rating, Ryegrass, Italian",[6]; [16],95
same,"Plant response rating, Ryegrass, Italian",[6]; [18],90
same,"Plant response rating, Ryegrass, Italian",[6]; [19],95
same,"Plant response rating, Ryegrass, Italian",[6]; [20],95
same,"Ryegrass, Italian plant response rating",[6]; [17],95
same,"Plant response rating, Pigweed",[7]; [14],60
same,Pigweed plant response rating,[7]; [15],80
same,"Plant response rating, Pigweed",[7]; [16],100
same,"Plant response rating, Pigweed",[7]; [18],70
same,"Plant response rating, Pigweed",[7]; [19],60
same,"Plant response rating, Pigweed",[7]; [20],100
same,Pigweed plant response rating,[7]; [21],100
same,Pigweed plant response rating,[7]; [17],90
same,"Plant response rating, Waterhemp",[8]; [14],75
same,Waterhemp plant response rating,[8]; [15],95
same,"Plant response rating, Waterhemp",[8]; [16],100
same,"Plant response rating, Waterhemp",[8]; [18],85
same,"Plant response rating, Waterhemp",[8]; [19],95
same,"Plant response rating, Waterhemp",[8]; [20],100
same,Waterhemp plant response rating,[8]; [17],98
same,"Plant response rating, Blackgrass",[9]; [14],5
same,Blackgrass plant response rating,[9]; [15],30
same,"Plant response rating, Blackgrass",[9]; [16],55
same,"Plant response rating, Blackgrass",[9]; [18],30
same,"Plant response rating, Blackgrass",[9]; [19],40
same,"Plant response rating, Blackgrass",[9]; [20],45
same,Blackgrass plant response rating,[9]; [21],90
same,Blackgrass plant response rating,[9]; [17],40
same,"Plant response rating, Johnsongrass",[10]; [14],5
same,Johnsongrass plant response rating,[10]; [15],5
same,"Plant response rating, Johnsongrass",[10]; [16],20
same,"Plant response rating, Johnsongrass",[10]; [18],0
same,"Plant response rating, Johnsongrass",[10]; [19],5
same,"Plant response rating, Johnsongrass",[10]; [20],10
same,Johnsongrass plant response rating,[10]; [21],35
same,Johnsongrass plant response rating,[10]; [17],15
same,"Plant response rating, Soybean",soybean (Glycine max); [14],10
same,Soybean plant response rating,soybean (Glycine max); [15],30
same,"Plant response rating, Soybean",soybean (Glycine max); [16],50
same,"Plant response rating, Soybean",soybean (Glycine max); [19],0
same,"Plant response rating, Soybean",soybean (Glycine max); [20],55
same,Soybean plant response rating,soybean (Glycine max); [17],60
same,"Plant response rating, Velvetleaf",[11]; [14],35
same,Velvetleaf plant response rating,[11]; [15],70
same,"Plant response rating, Velvetleaf",[11]; [16],100
same,"Plant response rating, Velvetleaf",[11]; [18],70
same,"Plant response rating, Velvetleaf",[11]; [19],90
same,"Plant response rating, Velvetleaf",[11]; [20],95
same,Velvetleaf plant response rating,[11]; [17],100
same,"Plant response rating, Foxtail, Giant",[12]; [14],10
same,"Foxtail, Giant plant response rating",[12]; [15],25
same,"Plant response rating, Foxtail, Giant",[12]; [16],75
same,"Foxtail, Giant plant response rating",[12]; [17],50
same,"Plant response rating, Oat, Wild",[13]; [14],65
same,"Oat, Wild plant response rating",[13]; [15],90
same,"Plant response rating, Oat, Wild",[13]; [16],95
same,"Oat, Wild plant response rating",[13]; [17],90
same,"Plant response rating, Kochia",kochia (Kochia scoparia); [14],95
same,Kochia plant response rating,kochia (Kochia scoparia); [15],95
same,"Plant response rating, Kochia",kochia (Kochia scoparia); [16],98
same,Kochia plant response rating,kochia (Kochia scoparia); [17],98

# Reference: patent US10597388B2, “Pyridazinone herbicides” (FMC CORPORATION, priority 2014, dated 2020)
